The subject of the assay is HCT116. The note with it: 72 h. An outline of the steps: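 For IC50 and maximal efficacy, four-parameter Hill fits were used. Input values were CellTiter-Glo luminescence from HCT116 cells seeded at 250 per well in 1536-well plates, normalized to vehicle (0%) and positive control (-100%). Pattern correction followed normalization.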

Where a name gives a salt, the structure may show the parent alone. Bounds are passed on as bounds.

This is an account of results in the supplement of paper PMC12137928.

Take `CC[C@@H]([C@H](C)O)n1ncn(-c2ccc(N3CCN(c4ccc(OC[C@@H]5CO[C@@](Cn6cncn6)(c6ccc(F)cc6F)C5)cc4)CC3)cc2)c1=O` [Posaconazole]: the IC50 cell viability is, setting by setting: (ICRF193 0 nM) more than 45.8 µM; (ICRF193 200 nM) more than 45.8 µM.

Turning to `CC(C)OC(=O)C(C)(C)Oc1ccc(C(=O)c2ccc(Cl)cc2)cc1` [Fenofibrate], the IC50 cell viability (ICRF193 0 nM) is more than 45.8 µM and the IC50 cell viability (ICRF193 200 nM) was more than 45.8 µM.

In the case of `O=C(O)/C=C(\CC(=O)O)C(=O)O` [trans-Aconitic acid], the IC50 cell viability is, setting by setting: (ICRF193 0 nM) more than 45.8 µM; (ICRF193 200 nM) more than 45.8 µM.

The molecule `CC(=O)c1cc2cccc(OCC(O)CNC(C)C)c2o1` (stereo not drawn) [Befunolol] yielded an IC50 cell viability (ICRF193 0 nM) of more than 45.8 µM and an IC50 cell viability (ICRF193 200 nM) of more than 45.8 µM.

As for `CC(=O)Oc1cc(C(C)C)c(OCCN(C)C)cc1C` [Moxisylyte hydrochloride], the IC50 cell viability is more than 45.8 µM (ICRF193 0 nM) and more than 45.8 µM (ICRF193 200 nM).

Take `CC1(C)OC[C@@H](COC(=O)CCc2ccc(OC[C@@H](O)CNCCNC(=O)N3CCOCC3)cc2)O1` [Landiolol hydrochloride]: the IC50 cell viability (ICRF193 0 nM) was more than 45.8 µM and the IC50 cell viability (ICRF193 200 nM) was more than 45.8 µM.

Regarding `O=C(Cn1c(=O)sc2ccc(Cl)cc21)N1CCN(CCO)CC1` [Tiaramide hydrochloride], the IC50 cell viability is more than 45.8 µM (ICRF193 0 nM) and more than 45.8 µM (ICRF193 200 nM).

As to `COc1ccc(CC2c3cc(OC)c(OC)cc3CC[N+]2(C)CCC(=O)OCCCCCOC(=O)CC[N+]2(C)CCc3cc(OC)c(OC)cc3C2Cc2ccc(OC)c(OC)c2)cc1OC` (stereo not drawn) [Atracurium besylate], the IC50 cell viability is, setting by setting: (ICRF193 0 nM) more than 45.8 µM; (ICRF193 200 nM) more than 45.8 µM.

Take `O=C1O[C@H](CO)[C@@H](O)[C@H](O)[C@H]1O` [Gluconolactone]: the IC50 cell viability is more than 45.8 µM (ICRF193 0 nM) and more than 45.8 µM (ICRF193 200 nM).

Take `COc1cc(C)c(/C=C/C(C)=C/C=C/C(C)=C/C(=O)O)c(C)c1C` [Acitretin]: the IC50 cell viability runs as follows: (ICRF193 0 nM) more than 45.8 µM; (ICRF193 200 nM) more than 45.8 µM.

Regarding `NCCCC[C@H](NC(=O)[C@@H]1CCCN1C(=O)[C@@H]1CSSC[C@H](N)C(=O)N[C@@H](Cc2ccccc2)C(=O)N[C@@H](Cc2ccccc2)C(=O)N[C@@H](CCC(N)=O)C(=O)N[C@@H](CC(N)=O)C(=O)N1)C(=O)NCC(N)=O` [Felypressin], the IC50 cell viability by setting is: (ICRF193 0 nM) more than 45.8 µM; (ICRF193 200 nM) more than 45.8 µM.

`CC(C)(C)CC(=O)OCC(=O)[C@@]12OC(C)(C)O[C@@H]1C[C@H]1[C@@H]3CCC4=CC(=O)C=C[C@]4(C)[C@@]3(F)[C@@H](O)C[C@@]12C` [Triamcinolone hexacetonide]: the IC50 cell viability was more than 45.8 µM (ICRF193 0 nM) and more than 45.8 µM (ICRF193 200 nM).

As to `CCN1CCCC1=O` [1-Ethyl-2-pyrrolidinone], the IC50 cell viability is more than 45.8 µM (ICRF193 0 nM) and more than 45.8 µM (ICRF193 200 nM).

Consider `CN(C)CCC(c1ccc(Br)cc1)c1ccccn1` (stereo not drawn) [Brompheniramine (maleate)], for which the IC50 cell viability was more than 45.8 µM (ICRF193 0 nM) and more than 45.8 µM (ICRF193 200 nM).

`CC(C)(C)c1ccc2c(S(=O)(=O)O)c(C(C)(C)C)ccc2c1` [DIBUNATE SODIUM]: the IC50 cell viability (ICRF193 0 nM) is more than 45.8 µM and the IC50 cell viability (ICRF193 200 nM) is more than 45.8 µM.

`CC1(C)O[C@@H]2C[C@H]3[C@@H]4CCC5=CC(=O)CC[C@]5(C)[C@@]4(F)[C@@H](O)C[C@]3(C)[C@]2(C(=O)CCl)O1` [Halcinonide]: the IC50 cell viability by setting is: (ICRF193 0 nM) more than 45.8 µM; (ICRF193 200 nM) more than 45.8 µM.

As to `CCNC1(c2cccs2)CCCCC1=O` (stereo not drawn) [Tiletamine Hydrochloride], the IC50 cell viability runs as follows: (ICRF193 0 nM) more than 45.8 µM; (ICRF193 200 nM) more than 45.8 µM.

In the case of `O=c1cc[nH]c(=O)[nH]1` [Uracil], the IC50 cell viability is more than 45.8 µM (ICRF193 0 nM) and more than 45.8 µM (ICRF193 200 nM).

For `CCOc1nc2cccc(C(=O)OCc3oc(=O)oc3C)c2n1Cc1ccc(-c2ccccc2-c2noc(=O)[nH]2)cc1` [Azilsartan Medoxomil], the IC50 cell viability is more than 45.8 µM (ICRF193 0 nM) and more than 45.8 µM (ICRF193 200 nM).

Regarding `O=C(O)c1cc2ccccc2c(Cc2c([O-])c(C(=O)O)cc3ccccc23)c1[O-].[Na+].[Na+]` [Pamoic acid disodium salt], the IC50 cell viability reads like this: (ICRF193 0 nM) more than 45.8 µM; (ICRF193 200 nM) more than 45.8 µM.

Regarding `NCC(O)c1ccc(O)cc1` (stereo not drawn) [Octopamine], the IC50 cell viability is more than 45.8 µM (ICRF193 0 nM) and more than 45.8 µM (ICRF193 200 nM).

Turning to `O=C(O)c1cn(-c2ccc(F)cc2)c2cc(N3CCNCC3)c(F)cc2c1=O` [Sarafloxacin hydrochloride], the IC50 cell viability runs as follows: (ICRF193 0 nM) more than 45.8 µM; (ICRF193 200 nM) more than 45.8 µM.

On to `CCN1CCCC1CNC(=O)c1cc(S(=O)(=O)CC)ccc1OC` (stereo not drawn) [Sultopride hydrochloride], for which the IC50 cell viability is, setting by setting: (ICRF193 0 nM) more than 45.8 µM; (ICRF193 200 nM) more than 45.8 µM.

`CN[C@@H]1[C@H](O[C@H]2[C@H](O[C@H]3[C@H](O)[C@@H](O)[C@H](N=C(N)N)[C@@H](O)[C@@H]3N=C(N)N)O[C@@H](C)[C@]2(O)C=O)O[C@@H](CO)[C@H](O)[C@H]1O` [Streptomycin sulfate]: the IC50 cell viability (ICRF193 0 nM) is more than 45.8 µM and the IC50 cell viability (ICRF193 200 nM) was more than 45.8 µM.

Turning to `CN(C)Cc1ccccc1` [N,N-Dimethylbenzylamine], the IC50 cell viability is, setting by setting: (ICRF193 0 nM) more than 45.8 µM; (ICRF193 200 nM) more than 45.8 µM.

With `CCN(C)C(C)C(O)c1ccccc1` (stereo not drawn) [Etafedrine hydrochloride], the IC50 cell viability (ICRF193 0 nM) was more than 45.8 µM and the IC50 cell viability (ICRF193 200 nM) was more than 45.8 µM.

For the molecule `Cc1cc(CC(C)C[Si](C)(O[Si](C)(C)C)O[Si](C)(C)C)c(O)c(-n2nc3ccccc3n2)c1` (stereo not drawn) [DROMETRIZOLE TRISILOXANE], the IC50 cell viability by setting is: (ICRF193 0 nM) more than 45.8 µM; (ICRF193 200 nM) more than 45.8 µM.

`C[C@]12CCC(=O)C=C1CC[C@@H]1[C@@H]2CC[C@]2(C)C(=O)CC[C@@H]12` [4-Androstene-3,17-dione]: the IC50 cell viability is more than 45.8 µM (ICRF193 0 nM) and more than 45.8 µM (ICRF193 200 nM).

Consider `Cc1ccc(-c2ncc(Cl)cc2-c2ccc(S(C)(=O)=O)cc2)cn1` [Etoricoxib], for which the IC50 cell viability was more than 45.8 µM (ICRF193 0 nM) and more than 45.8 µM (ICRF193 200 nM).

`CN(N=O)C(=O)N[C@@H](C=O)[C@@H](O)[C@H](O)[C@H](O)CO` [Streptozotocin]: the IC50 cell viability (ICRF193 0 nM) is more than 45.8 µM and the IC50 cell viability (ICRF193 200 nM) was more than 45.8 µM.

Consider `Cl[C@H]1[C@H](Cl)[C@@H](Cl)[C@@H](Cl)[C@H](Cl)[C@H]1Cl` [LINDANE], for which the IC50 cell viability is, setting by setting: (ICRF193 0 nM) more than 45.8 µM; (ICRF193 200 nM) more than 45.8 µM.

As to `O=C1NC(c2ccccc2)(c2ccccc2)C(=O)N1COP(=O)(O)O` [Fosphenytoin], the IC50 cell viability reads like this: (ICRF193 0 nM) more than 45.8 µM; (ICRF193 200 nM) more than 45.8 µM.

Turning to `OC[C@H]1O[C@@H](c2ccc(F)c(Cc3cc4ccccc4s3)c2)[C@H](O)[C@@H](O)[C@@H]1O` [Ipragliflozin], the IC50 cell viability (ICRF193 0 nM) was more than 45.8 µM and the IC50 cell viability (ICRF193 200 nM) is more than 45.8 µM.

`C[C@H](CCC(=O)O)[C@H]1CC[C@H]2[C@@H]3CC[C@@H]4C[C@H](O)CC[C@]4(C)[C@H]3C[C@H](O)[C@]12C` [Sodium deoxycholate monohydrate]: the IC50 cell viability was more than 45.8 µM (ICRF193 0 nM) and more than 45.8 µM (ICRF193 200 nM).

For `CC1(C)S[C@@H]2[C@H](NC(=O)[C@H](NC(=O)N3CCN(S(C)(=O)=O)C3=O)c3ccccc3)C(=O)N2[C@H]1C(=O)O` [Mezlocillin Sodium], the IC50 cell viability is more than 45.8 µM (ICRF193 0 nM) and more than 45.8 µM (ICRF193 200 nM).

The molecule `C[C@]12C=CC(=O)N[C@@H]1CC[C@@H]1[C@@H]2CC[C@]2(C)[C@@H](C(=O)Nc3cc(C(F)(F)F)ccc3C(F)(F)F)CC[C@@H]12` [Dutasteride] returned an IC50 cell viability (ICRF193 0 nM) of more than 45.8 µM and an IC50 cell viability (ICRF193 200 nM) of more than 45.8 µM.

Consider `C[C@@H]1C[C@H]2[C@@H]3C[C@H](F)C4=CC(=O)C=C[C@]4(C)[C@@]3(Cl)[C@@H](O)C[C@]2(C)[C@H]1C(=O)COC(=O)C(C)(C)C` [Clocortolone pivalate], for which the IC50 cell viability runs as follows: (ICRF193 0 nM) more than 45.8 µM; (ICRF193 200 nM) more than 45.8 µM.

`CNC(C)CC1CCCC1` (stereo not drawn) [Cyclopentamine hydrochloride]: the IC50 cell viability reads like this: (ICRF193 0 nM) more than 45.8 µM; (ICRF193 200 nM) more than 45.8 µM.

Turning to `CCOC(=O)[C@H](CCc1ccccc1)N[C@@H](C)C(=O)N(CC(=O)O)C1Cc2ccccc2C1` [Delapril hydrochloride], the IC50 cell viability is, setting by setting: (ICRF193 0 nM) more than 45.8 µM; (ICRF193 200 nM) more than 45.8 µM.

With `O=c1[nH]c2ccccc2n1CCCN1CCC(n2c(=O)[nH]c3cc(Cl)ccc32)CC1` [Domperidone], the IC50 cell viability by setting is: (ICRF193 0 nM) more than 45.8 µM; (ICRF193 200 nM) more than 45.8 µM.

Take `CO/N=C(\C(=O)N[C@@H]1C(=O)N2C(C(=O)O)=C(COC(C)=O)CS[C@H]12)c1csc(N)n1` [Cefotaxime sodium salt]: the IC50 cell viability by setting is: (ICRF193 0 nM) more than 45.8 µM; (ICRF193 200 nM) more than 45.8 µM.

With `C=CCOc1ccccc1OCC(O)CNC(C)C` (stereo not drawn) [Oxprenolol hydrochloride], the IC50 cell viability (ICRF193 0 nM) is more than 45.8 µM and the IC50 cell viability (ICRF193 200 nM) is more than 45.8 µM.

Turning to `Nc1ccn([C@H]2CC[C@@H](CO)O2)c(=O)n1` [2',3'-Dideoxycytidine], the IC50 cell viability is more than 45.8 µM (ICRF193 0 nM) and more than 45.8 µM (ICRF193 200 nM).

Consider `Cc1ccc(NC(=O)C2(c3ccc4c(c3)OC(F)(F)O4)CC2)nc1-c1cccc(C(=O)O)c1` [Lumacaftor], for which the IC50 cell viability was more than 45.8 µM (ICRF193 0 nM) and more than 45.8 µM (ICRF193 200 nM).

`CC1(C)O[C@@H]2C[C@H]3[C@@H]4C[C@H](F)C5=CC(=O)C=C[C@]5(C)[C@H]4[C@@H](O)C[C@]3(C)[C@]2(C(=O)CO)O1` [Flunisolide] showed an IC50 cell viability (ICRF193 0 nM) of more than 45.8 µM and an IC50 cell viability (ICRF193 200 nM) of more than 45.8 µM.

`CCOC(=O)c1ccc(N)cc1` [Benzocaine]: the IC50 cell viability reads like this: (ICRF193 0 nM) more than 45.8 µM; (ICRF193 200 nM) more than 45.8 µM.

As for `CC1(C)C(C=C(Cl)Cl)C1C(=O)OCc1cccc(Oc2ccccc2)c1` (stereo not drawn) [PERMETHRIN], the IC50 cell viability is, setting by setting: (ICRF193 0 nM) more than 45.8 µM; (ICRF193 200 nM) more than 45.8 µM.

Consider `CCCCC(CC)COC(=O)c1ccc(N(C)C)cc1` (stereo not drawn) [2-Ethylhexyl 4-(dimethylamino)benzoate], for which the IC50 cell viability was more than 45.8 µM (ICRF193 0 nM) and more than 45.8 µM (ICRF193 200 nM).

Take `N=C(N/N=C/c1ccc(Cl)cc1)N/N=C/c1ccc(Cl)cc1` [Robenidine]: the IC50 cell viability (ICRF193 0 nM) was more than 45.8 µM and the IC50 cell viability (ICRF193 200 nM) is more than 45.8 µM.
